# Results reported in patent US8431525B2, “Coelenteramide analogs” (JNC Corporation, priority 2009, dated 2013).
# What was measured:
# [1] = Fluorescence spectrum and fluorescence quantum yield of CTMD analogs at 750 nM (Example 1); format: physicochemical; conditions: for Fluorescence quantum yield (PB) / λmax (PB)/nm: 67 mM phosphate buffer pH 7.4, 750 nM; for Fluorescence quantum yield (PB) / λmax (PB)/nm / λmax (MeOH)/nm / Fluorescence quantum yield (MeOH): 25° C., excited at 330 nm; for Fluorescence quantum yield (PB) / Fluorescence quantum yield (MeOH): relative to quinine sulfate 0.55; for λmax (PB)/nm / λmax (MeOH)/nm: fluorescence emission; for λmax (MeOH)/nm / Fluorescence quantum yield (MeOH): methanol, 750 nM; for fluorescence properties compared with known CTMD (c-4) or h-CTMD (c-13): from TABLE 1
# Procedure: The fluorescence quantum yield of each CTMD analog synthesized was determined by the following procedure. The fluorescence spectrum was measured at 25° C. using a spectrofluorometer FP-6500 of JASCO (JASCO Corp., Tokyo). Specifically, the CTMD analog was dissolved in methanol (MeOH) or in 67 mM phosphate buffer (PB) (pH 7.4) at a final concentration of 750 nM using a quartz cell (light path length of 10 mm). Measurement was performed 3 times at the excited wavelength of 330 nm, emission/excitation band width of 3 nm, response of 0.5 second and scanning rate of 100 nm/min. The average was taken as the fluorescence spectrum of the compound. The fluorescence quantum yield was determined after the spectrum was corrected.
# Quinine sulfate was used as a standard for determining the fluorescence quantum yield. After quinine sulfate (Wako Pure Chemical Industries) was dissolved in 0.1N sulfuric acid aqueous solution, measurement was performed at the excitation light of 366 nm under the conditions for fluorescence measurements described above. The relative fluorescence quantum yield (fluorescence intensity) of the compound was calculated relative to the quantum yield of quinine sulfate as being 0.55.
Fluorescence quantum yield (PB) [1],λmax (PB)/nm [1],λmax (MeOH)/nm [1],Fluorescence quantum yield (MeOH) [1],melting point,fluorescence properties compared with known CTMD (c-4) or h-CTMD (c-13) [1],SMILES
0.137,435.5 nm,429.5 nm,0.066,144 to 147 °C (dec.),different fluorescence properties,"O=S(=O)(Cc1ccccc1)Nc1ncc(-c2ccc(O)cc2)nc1Cc1ccccc1 [c-15, 3-Benzyl-2-benzylsulfonylamino-5-(4-hydroxyphenyl)pyrazine]"
0.181,450 nm,415 nm,0.342,197.5 to 202 °C,–,"COc1ccc(-c2cnc(NC(=O)Cc3ccccc3)c(Cc3ccccc3)n2)cc1 [c-16, 3-Benzyl-5-(4-methoxyphenyl)-2-(phenylacetylamino)pyrazine]"
0.003,445 nm,417.5 nm,0.003,45 to 47 °C,different fluorescence properties,"COc1ccc(-c2cnc(NC(=S)Cc3ccccc3)c(Cc3ccccc3)n2)cc1 [c-17, 3-Benzyl-5-(4-methoxyphenyl)-2-(phenylthioacetylamino)pyrazine]"
0.147,429 nm,416.5 nm,0.293,213 to 215 °C,different fluorescence properties,"COc1ccc(-c2cnc(NS(=O)(=O)Cc3ccccc3)c(Cc3ccccc3)n2)cc1 [c-18, 3-Benzyl-2-benzylsulfonylamino-5-(4-methoxyphenyl)pyrazine]"
0.199,450.5 nm,415.5 nm,0.345,–,–,"COc1ccc(-c2cnc(NC(C)=O)c(Cc3ccccc3)n2)cc1 [c-24, 2-Acetylamino-3-benzyl-5-(4-methoxyphenyl)pyrazine]"
0.096,437 nm,429 nm,0.056,–,different fluorescence properties,"CS(=O)(=O)Nc1ncc(-c2ccc(O)cc2)nc1Cc1ccccc1 [c-34, 3-Benzyl-5-(4-hydroxyphenyl)-2-(methanesulfonylamino)pyrazine]"

# Continued, compound first:
SMILES,Fluorescence quantum yield (PB) [1],λmax (PB)/nm [1],λmax (MeOH)/nm [1],Fluorescence quantum yield (MeOH) [1],melting point,fluorescence properties compared with known CTMD (c-4) or h-CTMD (c-13) [1]
"O=C(Cc1ccccc1)Nc1ncc(-c2ccc(O)cc2)nc1Cc1ccccc1 [c-13, 3-Benzyl-5-(4-hydroxyphenyl)-2-(phenylacetylamino)pyrazine]",0.003,399 nm,424.5 nm,0.010,259 to 261 °C,–
"CC(=O)Oc1ccc(-c2cnc(N)c(Cc3ccccc3)n2)cc1 [c-19, 5-(4-Acetoxyphenyl)-2-amino-3-benzylpyrazine]",–,–,–,–,183.5 to 185.5 °C,–
"CC(=O)Oc1ccc(-c2cnc(N(S(=O)(=O)Cc3ccccc3)S(=O)(=O)Cc3ccccc3)c(Cc3ccccc3)n2)cc1 [c-20, 5-(4-Acetoxyphenyl)-3-benzyl-2-bis(benzylsulfonyl)aminopyrazine]",0.026,420 nm,399.5 nm,0.185,84 to 86.5 °C,different fluorescence properties
"CC(=O)Oc1ccc(-c2cnc(N(S(=O)(=O)Cc3ccc(I)cc3)S(=O)(=O)Cc3ccc(I)cc3)c(Cc3ccccc3)n2)cc1 [c-46, 5-(4-Acetoxyphenyl)-3-benzyl-2-bis(4-iodobenzylsulfonyl)aminopyrazine]",–,–,–,–,166 to 167 °C,–
